Values of other authors as cited in patent US20060191043A1, “Low maintenance turfgrass” (priority 2004, published 2006).

What was measured:
[1] = molecular target: native EPSPS from E. coli (Escherichia coli, UniProt P0A6D3); settings: read-out: apparent Km for PEP
[2] = molecular target: glyphosate-resistant EPSPS isolate having a single amino acid substitution of an alanine for the glycine at position 96 (Escherichia coli, UniProt P0A6D3, G96A); settings: alanine for glycine at position 96, read-out: apparent Ki for glyphosate
glyphosate-resistant EPSPS isolate having a single amino acid substitution of an alanine for the glycine at position 96, sequence (P0A6D3 whole entry G96A): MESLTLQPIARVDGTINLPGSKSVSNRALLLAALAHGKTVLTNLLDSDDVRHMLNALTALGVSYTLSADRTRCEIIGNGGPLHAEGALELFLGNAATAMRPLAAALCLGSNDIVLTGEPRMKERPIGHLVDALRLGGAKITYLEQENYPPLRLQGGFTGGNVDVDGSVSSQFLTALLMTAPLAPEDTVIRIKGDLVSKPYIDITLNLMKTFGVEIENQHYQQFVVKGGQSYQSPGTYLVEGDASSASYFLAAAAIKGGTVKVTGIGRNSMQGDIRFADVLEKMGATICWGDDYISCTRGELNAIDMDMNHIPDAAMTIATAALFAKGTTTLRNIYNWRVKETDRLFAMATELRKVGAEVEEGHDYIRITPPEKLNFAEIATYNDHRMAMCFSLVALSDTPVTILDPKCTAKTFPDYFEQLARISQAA

native EPSPS from E. coli, sequence (P0A6D3 whole entry): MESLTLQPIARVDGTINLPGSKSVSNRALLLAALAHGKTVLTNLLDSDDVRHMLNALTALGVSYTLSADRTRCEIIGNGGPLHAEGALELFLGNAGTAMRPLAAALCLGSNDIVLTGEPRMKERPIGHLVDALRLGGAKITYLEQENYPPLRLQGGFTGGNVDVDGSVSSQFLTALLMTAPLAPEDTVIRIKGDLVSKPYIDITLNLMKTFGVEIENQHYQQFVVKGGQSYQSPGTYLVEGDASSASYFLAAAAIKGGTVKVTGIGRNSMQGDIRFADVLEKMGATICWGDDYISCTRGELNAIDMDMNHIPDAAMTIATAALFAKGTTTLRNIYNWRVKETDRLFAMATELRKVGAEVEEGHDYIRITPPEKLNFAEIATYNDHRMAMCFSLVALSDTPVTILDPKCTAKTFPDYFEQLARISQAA

SMILES	Km [1] [µM]	Ki [2] [mM]
C=C(OP(=O)(O)O)C(=O)O [PEP]	10	
O=C(O)CNCP(=O)(O)O [glyphosate, N-phosphonomethylglycine]		4
